The values below come from publication PMC13128454, “Mutant p53 protein accumulation is selectively targetable by proximity-inducing drugs” (Nature Chemical Biology, 2025).

The target in assay [1] is p53-Y220C. The settings on record: cited from earlier work.
The test system of assay [2] is MFE319 cells. Description: CellTiter-Glo cell viability. More on the design: p5301_AUC_to_10uM / AUC_rezatapopt: scale not given here. The class given is cell-based. To be noted: MFE319. Here is the method:
(§1) Cells were plated in 384-well plates (typically 1,500 cells per well) with varying concentrations of compounds, with a total volume of 50 μl per well. CTG reagent was added (25 μl) to the solutions, mixed and read out using an EnVision 2105 multimode plate reader.
A general note: In ATP-based viability assays light output follows the ATP content of the culture.

For assay [3], the system named is NUGC-3 cells. Description: CellTiter-Glo cell viability. It counts as cell-based. The arrangement: AUC_rezatapopt: unit not given beside the values. To be noted: NUGC3. The procedure: as §1
Assay [4] has as its system HepG2 cells. The assay can be described thus: CellTiter-Glo cell viability. The class given is cell-based. More on the design: AUC_rezatapopt: unit not given beside the values. Here is the method: as §1
The test system of assay [5] is MCF7 cells. The assay can be described thus: CellTiter-Glo cell viability. The arrangement: AUC_rezatapopt: unit not given beside the values. It counts as cell-based. Here is the method:
as §1

In assay [6] the test system is MFE296 cells. Description: CellTiter-Glo cell viability. The arrangement: AUC_rezatapopt: unit not given beside the values. The class given is cell-based. The procedure: as §1
The test system of assay [7] is Huh7 cells. Description: CellTiter-Glo cell viability. It counts as cell-based. The arrangement: AUC_rezatapopt: unit not given beside the values. The procedure:
as §1

The subject of assay [8] is LNCaP cells. The assay can be described thus: CellTiter-Glo cell viability. The class given is cell-based. The arrangement: AUC_rezatapopt: unit not given beside the values. The settings on record: LNCaP. The procedure:
as §1

Assay [9] concerns DU145 cells. Description: CellTiter-Glo cell viability. It counts as cell-based. The arrangement: AUC_rezatapopt: unit not given beside the values. Here is the method:
as §1

What is called Kd is the equilibrium constant for the complex coming apart. With `CNC(=O)c1ccc(NCC#Cc2cc3c(N[C@@H]4CCN(C)C[C@@H]4F)cccc3n2CC(F)(F)F)c(OC)c1` [rezatapopt], the Kd in assay [1] is about 2.5 nM. Besides, the AUC_rezatapopt in assay [2] amounted to 0.8525; in assay [3] it was 0.5908; in assay [4], 0.9433; in assay [5], 0.9331; in assay [6], 0.5683; in assay [7] it was 0.6525. The AUC_rezatapopt in [8] is given as 0.9713; in assay [9] it was 1.
